Data from the NIST ThermoML archive (doi:10.1021/je5007407).
Several values for one entry are separate records, joined by “and”; a condition that tells them apart may be missing. Identical values can stand only once. Numbers after ± are expanded uncertainties.

Assay: xn = mol fraction of the nth substance listed
Settings: Gas, Frequency=2 MHz, Pulse-echo method

CCC [propane] + O=C=O
Settings | speed of sound
248.59 K, 8020 kPa, x2 = 0.9981 | 802.3 ± 1.1 m/s
248.59 K, 8030 kPa, x2 = 0.9981 | 802.3 ± 1.1 m/s
248.59 K, 14980 kPa, x2 = 0.9981 | 856.8 ± 1 m/s
248.59 K, 24990 kPa, x2 = 0.9981 | 923 ± 1 m/s
248.59 K, 50040 kPa, x2 = 0.9981 | 1051.1 ± 1 m/s
248.59 K, 74970 kPa, x2 = 0.9981 | 1149.9 ± 1 m/s
248.59 K, 100010 kPa, x2 = 0.9981 | 1233.1 ± 1.1 m/s
248.59 K, 124970 kPa, x2 = 0.9981 | 1303.8 ± 1.1 m/s
248.59 K, 150040 kPa, x2 = 0.9981 | 1367.4 ± 1.2 m/s
248.88 K, 8270 kPa, x2 = 0.9376 | 799.4 ± 1.1 m/s
248.88 K, 15030 kPa, x2 = 0.9376 | 855.4 ± 1.1 m/s
248.88 K, 25030 kPa, x2 = 0.9376 | 924.8 ± 1 m/s
248.88 K, 49910 kPa, x2 = 0.9376 | 1056.8 ± 1 m/s
248.88 K, 75000 kPa, x2 = 0.9376 | 1159.3 ± 1.1 m/s
248.88 K, 100010 kPa, x2 = 0.9376 | 1246.2 ± 1.1 m/s
248.88 K, 125000 kPa, x2 = 0.9376 | 1320.1 ± 1.1 m/s
248.88 K, 149990 kPa, x2 = 0.9376 | 1385.8 ± 1.2 m/s
248.88 K, 174980 kPa, x2 = 0.9376 | 1447.1 ± 1.2 m/s
249.03 K, 7920 kPa, x2 = 0.9683 | 797.2 ± 1.1 m/s and 796.4 ± 1.1 m/s
249.03 K, 14790 kPa, x2 = 0.9683 | 852.8 ± 1.1 m/s
249.03 K, 25010 kPa, x2 = 0.9683 | 922.3 ± 1 m/s
249.03 K, 49980 kPa, x2 = 0.9683 | 1052.6 ± 1 m/s
249.03 K, 75760 kPa, x2 = 0.9683 | 1155.3 ± 1.1 m/s
249.03 K, 100410 kPa, x2 = 0.9683 | 1239.6 ± 1.1 m/s
249.03 K, 125280 kPa, x2 = 0.9683 | 1312.1 ± 1.1 m/s
249.03 K, 150010 kPa, x2 = 0.9683 | 1377.4 ± 1.2 m/s
251.21 K, 8050 kPa, x2 = 0.9907 | 786.8 ± 1.1 m/s
251.21 K, 8120 kPa, x2 = 0.9907 | 787.6 ± 1.1 m/s
251.21 K, 15010 kPa, x2 = 0.9907 | 844.2 ± 1.1 m/s
251.21 K, 25270 kPa, x2 = 0.9907 | 913.8 ± 1 m/s
251.21 K, 50770 kPa, x2 = 0.9907 | 1045.7 ± 1 m/s
251.21 K, 75170 kPa, x2 = 0.9907 | 1143.2 ± 1 m/s
251.21 K, 101430 kPa, x2 = 0.9907 | 1230.8 ± 1.1 m/s
251.21 K, 124940 kPa, x2 = 0.9907 | 1299.1 ± 1.1 m/s
251.21 K, 150910 kPa, x2 = 0.9907 | 1366.3 ± 1.2 m/s
273.25 K, 8170 kPa, x2 = 0.9376 | 614.5 ± 1.5 m/s
273.25 K, 8180 kPa, x2 = 0.9376 | 614.8 ± 1.5 m/s
273.25 K, 15190 kPa, x2 = 0.9376 | 699.7 ± 1.2 m/s
273.25 K, 24920 kPa, x2 = 0.9376 | 787.4 ± 1 m/s
273.25 K, 50000 kPa, x2 = 0.9376 | 946.5 ± 1 m/s
273.25 K, 75020 kPa, x2 = 0.9376 | 1062.2 ± 1 m/s
273.25 K, 100040 kPa, x2 = 0.9376 | 1155.2 ± 1 m/s
273.25 K, 125010 kPa, x2 = 0.9376 | 1236.3 ± 1.1 m/s
273.25 K, 150000 kPa, x2 = 0.9376 | 1305.4 ± 1.1 m/s
273.25 K, 175050 kPa, x2 = 0.9376 | 1369.6 ± 1.2 m/s
273.25 K, 200000 kPa, x2 = 0.9376 | 1428.5 ± 1.2 m/s
273.34 K, 8010 kPa, x2 = 0.9683 | 610.5 ± 1.3 m/s and 610.9 ± 1.3 m/s
273.34 K, 14920 kPa, x2 = 0.9683 | 694.4 ± 1.2 m/s
273.34 K, 25000 kPa, x2 = 0.9683 | 785 ± 1 m/s
273.34 K, 50050 kPa, x2 = 0.9683 | 942.8 ± 1 m/s
273.34 K, 75530 kPa, x2 = 0.9683 | 1058.9 ± 1 m/s
273.34 K, 100060 kPa, x2 = 0.9683 | 1149.4 ± 1 m/s
273.34 K, 125060 kPa, x2 = 0.9683 | 1229.3 ± 1.1 m/s
273.34 K, 148510 kPa, x2 = 0.9683 | 1293.7 ± 1.1 m/s
273.34 K, 175030 kPa, x2 = 0.9683 | 1360.3 ± 1.2 m/s
273.34 K, 200040 kPa, x2 = 0.9683 | 1417.3 ± 1.2 m/s
273.39 K, 8050 kPa, x2 = 0.9907 | 613.9 ± 1.3 m/s
273.39 K, 8070 kPa, x2 = 0.9907 | 614 ± 1.3 m/s
273.39 K, 15140 kPa, x2 = 0.9907 | 698.1 ± 1.2 m/s
273.39 K, 25280 kPa, x2 = 0.9907 | 787.2 ± 1 m/s
273.39 K, 50080 kPa, x2 = 0.9907 | 941.2 ± 1 m/s
273.39 K, 75540 kPa, x2 = 0.9907 | 1055.9 ± 1 m/s
273.39 K, 100080 kPa, x2 = 0.9907 | 1145.5 ± 1 m/s
273.39 K, 125360 kPa, x2 = 0.9907 | 1225.5 ± 1.1 m/s
273.39 K, 150170 kPa, x2 = 0.9907 | 1292.3 ± 1.1 m/s
273.39 K, 174970 kPa, x2 = 0.9907 | 1354.8 ± 1.2 m/s
273.39 K, 199910 kPa, x2 = 0.9907 | 1410.8 ± 1.2 m/s
273.41 K, 15200 kPa, x2 = 0.9981 | 699 ± 1.1 m/s
273.41 K, 15230 kPa, x2 = 0.9981 | 699 ± 1.1 m/s
273.41 K, 25030 kPa, x2 = 0.9981 | 785.6 ± 1 m/s
273.41 K, 50020 kPa, x2 = 0.9981 | 939.4 ± 1 m/s
273.41 K, 75010 kPa, x2 = 0.9981 | 1052.3 ± 1 m/s
273.41 K, 100020 kPa, x2 = 0.9981 | 1143.6 ± 1 m/s
273.41 K, 124950 kPa, x2 = 0.9981 | 1220.2 ± 1.1 m/s
273.41 K, 150010 kPa, x2 = 0.9981 | 1288.3 ± 1.1 m/s
273.41 K, 174990 kPa, x2 = 0.9981 | 1349.1 ± 1.2 m/s
273.41 K, 200000 kPa, x2 = 0.9981 | 1404.5 ± 1.2 m/s
298.13 K, 25110 kPa, x2 = 0.9907 | 654.1 ± 0.9 m/s
298.13 K, 25180 kPa, x2 = 0.9907 | 653.9 ± 0.9 m/s
298.13 K, 50020 kPa, x2 = 0.9907 | 837.8 ± 1 m/s
298.13 K, 50040 kPa, x2 = 0.9981 | 837.4 ± 0.9 m/s and 837.3 ± 0.9 m/s
298.13 K, 74940 kPa, x2 = 0.9981 | 962.5 ± 0.9 m/s
298.13 K, 75230 kPa, x2 = 0.9907 | 965 ± 1 m/s
298.13 K, 100020 kPa, x2 = 0.9981 | 1061.9 ± 1 m/s
298.13 K, 100100 kPa, x2 = 0.9907 | 1064 ± 1 m/s
298.13 K, 124970 kPa, x2 = 0.9907 | 1147.9 ± 1 m/s
298.13 K, 125020 kPa, x2 = 0.9981 | 1145.5 ± 1 m/s
298.13 K, 149790 kPa, x2 = 0.9907 | 1220.2 ± 1.1 m/s
298.13 K, 150010 kPa, x2 = 0.9981 | 1219.2 ± 1.1 m/s
298.13 K, 174530 kPa, x2 = 0.9907 | 1285.6 ± 1.1 m/s
298.13 K, 174980 kPa, x2 = 0.9981 | 1285.5 ± 1.1 m/s
298.13 K, 200010 kPa, x2 = 0.9981 | 1346.1 ± 1.2 m/s
298.13 K, 200530 kPa, x2 = 0.9907 | 1346.2 ± 1.2 m/s
298.14 K, 14950 kPa, x2 = 0.9683 | 531.8 ± 1.3 m/s
298.14 K, 14960 kPa, x2 = 0.9683 | 532.2 ± 1.3 m/s
298.14 K, 24980 kPa, x2 = 0.9683 | 654.5 ± 1 m/s
298.14 K, 50050 kPa, x2 = 0.9683 | 841.6 ± 1 m/s
298.14 K, 74950 kPa, x2 = 0.9683 | 969 ± 1 m/s
298.14 K, 100060 kPa, x2 = 0.9683 | 1070 ± 1 m/s
298.14 K, 125000 kPa, x2 = 0.9683 | 1154.1 ± 1 m/s
298.14 K, 150290 kPa, x2 = 0.9683 | 1228.9 ± 1.1 m/s
298.14 K, 175030 kPa, x2 = 0.9683 | 1294.1 ± 1.1 m/s
298.14 K, 200020 kPa, x2 = 0.9683 | 1354.1 ± 1.2 m/s
298.18 K, 8210 kPa, x2 = 0.9376 | 388.5 ± 2.4 m/s
298.18 K, 15120 kPa, x2 = 0.9376 | 538.7 ± 1.7 m/s and 538.6 ± 1.7 m/s
298.18 K, 24990 kPa, x2 = 0.9376 | 659 ± 1 m/s
298.18 K, 49980 kPa, x2 = 0.9376 | 846.6 ± 1 m/s
298.18 K, 75090 kPa, x2 = 0.9376 | 975.1 ± 1 m/s
